In US9822130B2, “Triazolo-pyrazinyl derivatives useful as soluble guanylate cyclase activators” (Merck Sharp & Dohme Corp., priority 2014, dated 2017) one finds EC50 and Emax data, which are given here for 18 compounds.

SMILES strings stand for the structures.

In one assay the target is T1, sGC α1/β1 heterodimer stably expressed in CHO-K1 cell line (CHO-K1/sGC) (Homo sapiens, UniProt Q02108+Q02153).
T1 construct: expressed in transfected cells
T1 sequence (Q02108 1-690): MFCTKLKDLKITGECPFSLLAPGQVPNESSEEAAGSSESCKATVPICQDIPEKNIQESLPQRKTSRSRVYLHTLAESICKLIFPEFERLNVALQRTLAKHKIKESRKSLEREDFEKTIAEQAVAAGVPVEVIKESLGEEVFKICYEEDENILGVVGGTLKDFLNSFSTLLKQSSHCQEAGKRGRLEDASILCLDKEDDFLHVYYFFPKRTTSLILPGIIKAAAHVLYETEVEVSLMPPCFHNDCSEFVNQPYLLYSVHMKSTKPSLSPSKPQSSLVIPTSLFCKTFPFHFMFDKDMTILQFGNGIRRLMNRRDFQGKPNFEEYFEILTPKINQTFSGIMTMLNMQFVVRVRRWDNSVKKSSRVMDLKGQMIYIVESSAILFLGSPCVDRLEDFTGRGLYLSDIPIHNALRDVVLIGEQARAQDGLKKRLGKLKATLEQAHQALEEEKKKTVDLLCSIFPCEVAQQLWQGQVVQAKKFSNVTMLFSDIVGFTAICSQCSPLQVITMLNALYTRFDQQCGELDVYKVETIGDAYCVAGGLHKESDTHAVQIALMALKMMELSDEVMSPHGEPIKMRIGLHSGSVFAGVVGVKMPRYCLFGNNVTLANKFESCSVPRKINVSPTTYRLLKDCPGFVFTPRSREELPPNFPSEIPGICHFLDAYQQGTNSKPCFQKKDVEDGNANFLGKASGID
T1 sequence (Q02153 1-619): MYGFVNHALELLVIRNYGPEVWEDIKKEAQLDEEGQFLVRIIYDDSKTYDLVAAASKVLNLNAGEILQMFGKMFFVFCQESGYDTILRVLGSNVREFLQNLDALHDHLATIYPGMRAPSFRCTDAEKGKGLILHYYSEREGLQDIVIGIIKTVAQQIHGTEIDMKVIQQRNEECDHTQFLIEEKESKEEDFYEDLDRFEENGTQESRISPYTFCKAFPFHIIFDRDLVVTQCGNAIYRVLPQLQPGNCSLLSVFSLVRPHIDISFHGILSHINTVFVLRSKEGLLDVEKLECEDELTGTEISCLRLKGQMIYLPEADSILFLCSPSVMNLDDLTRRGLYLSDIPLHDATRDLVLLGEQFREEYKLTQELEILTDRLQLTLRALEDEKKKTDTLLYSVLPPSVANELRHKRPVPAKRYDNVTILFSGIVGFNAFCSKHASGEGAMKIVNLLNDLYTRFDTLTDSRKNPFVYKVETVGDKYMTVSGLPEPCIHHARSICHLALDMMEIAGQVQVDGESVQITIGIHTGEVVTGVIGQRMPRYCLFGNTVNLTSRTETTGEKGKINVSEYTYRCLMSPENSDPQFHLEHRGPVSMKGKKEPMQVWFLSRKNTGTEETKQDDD
The assay is described as follows: Cell-based sGC Functional Assay (CASA Assay), cGMP generation. The note with it: CHO-K1/sGC cells, 1 hr at 37° C., cGMP by HTRF, 4P fit; presence or absence of 1 μM DETA-NO not given; read-out: IP (nM) (inflection point). An outline of the steps: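 Readout is HTRF cGMP in lysates, normalised to the maximal response of reference sGC activator Compound A (100%), with a 4P fit giving IP and fold induction. Cells were CHO-K1/sGC (human α1/β1) in EBSS buffer with IBMX, incubated 1 hr at 37° C with compound. Run with and without 1 μM DETA-NO; final DMSO 2.5%.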
In general terms: TR-FRET usually uses a lanthanide donor and a delayed reading to cut background.
As to `CCCCc1nc(-c2nc(N)c3c(n2)NC(=O)C3(c2nnc(C(F)(F)F)o2)C2CC2)cn2ncnc12` (centres unmarked) [Example 105A, 4-amino-2-(8-butyl-[1,2,4]triazolo[1,5-a]pyrazin-6-yl)-5-cyclopropyl-5-(5-(trifluoromethyl)-1,3,4-oxadiazol-2-yl)-5H-pyrrolo[2,3-d]pyrimidin-6(7H)-one], the EC50 came to 26.7 nM.

On to `Nc1nc(-c2cn3ncnc3c(CCCC(F)(F)F)n2)nc2c1C(c1nnc(C(F)(F)F)o1)(C1CC1)C(=O)N2` (centres unmarked) [Example 106A, 4-amino-5-cyclopropyl-2-(8-(4,4,4-trifluorobutyl)-[1,2,4]triazolo[1,5-a]pyrazin-6-yl)-5-(5-(trifluoromethyl)-1,3,4-oxadiazol-2-yl)-5H-pyrrolo[2,3-d]pyrimidin-6(7H)-one], for which the EC50 worked out at 15.5 nM.

Turning to `Nc1nc(-c2cn3ncnc3c(CCC(F)(F)C(F)(F)F)n2)nc2c1C(c1nnc(C3CC3)o1)(C1CC1)C(=O)N2` (centres unmarked) [Example 107A, 4-amino-5-cyclopropyl-5-(5-cyclopropyl-1,3,4-oxadiazol-2-yl)-2-(8-(3,3,4,4,4-pentafluorobutyl)-[1,2,4]triazolo[1,5-a]pyrazin-6-yl)-5H-pyrrolo[2,3-d]pyrimidin-6(7H)-one], the EC50 came to 74.7 nM.

For the compound `Nc1nc(-c2cn3ncnc3c(CCCC(F)(F)F)n2)nc2c1C(c1nnc(C3(F)CC3)o1)(C1CC1)C(=O)N2` (centres unmarked) [Example 108A, 4-amino-5-cyclopropyl-5-(5-(1-fluorocyclopropyl)-1,3,4-oxadiazol-2-yl)-2-(8-(4,4,4-trifluorobutyl)-[1,2,4]triazolo[1,5-a]pyrazin-6-yl)-5H-pyrrolo[2,3-d] pyrimidin-6(7H)-one], the EC50 was 14.7 nM.

Consider `CC1(c2nnc(C3(F)CC3)o2)C(=O)Nc2nc(-c3cn4ncnc4c(CCCC(F)(F)F)n3)nc(N)c21` (centres unmarked) [Example 109A, 4-amino-5-(5-(1-fluorocyclopropyl)-1,3,4-oxadiazol-2-yl)-5-methyl-2-(8-(4,4,4-trifluorobutyl)-[1,2,4]triazolo[1,5a]pyrazin-6-yl)-5H-pyrrolo[2,3-d] pyrimidin-6(7H)-one], for which the EC50 turned out to be 7.3 nM.

`CC1(c2ccc(O)cn2)C(=O)Nc2nc(-c3cn4ncnc4c(CCC(F)(F)C(F)(F)F)n3)nc(N)c21` (centres unmarked) [Example 110A, 4-Amino-5-(5-hydroxypyridin-2-yl)-5-methyl-2-(8-(3,3,4,4,4-pentafluorobutyl)-[1,2,4]triazolo [1,5-a]pyrazin-6-yl)-5,7-dihydro-6H-pyrrolo [2,3-d]pyrimidin-6-one]: the EC50 amounted to 139 nM.

For the compound `CC1(c2ccc(O)cn2)C(=O)Nc2nc(-c3cn4ncnc4c(CCCC(F)(F)F)n3)nc(N)c21` (centres unmarked) [Example 111A, 4-amino-5-(5-hydroxypyridin-2-yl)-5-methyl-2-(8-(4,4,4-trifluorobutyl)-[1,2,4]triazolo[1,5-a]pyrazin-6-yl)-5H-pyrrolo[2,3-d]pyrimidin-6(7H)-one], the EC50 came to 370 nM.

For `Nc1nc(-c2cn3ncnc3c(CCCC(F)(F)F)n2)nc2c1C(c1ccc(O)cn1)(C1CC1)C(=O)N2` (centres unmarked) [Example 112A, 4-amino-5-cyclopropyl-5-(5-hydroxypyridin-2-yl)-2-(8-(4,4,4-trifluorobutyl)-[1,2,4]triazolo[1,5-a]pyrazin-6-yl)-5H-pyrrolo[2,3-d]pyrimidin-6(7H)-one], the EC50 was found to be 212 nM.

With `C[C@@]1(c2ccc(F)cc2)C(=O)Nc2nc(-c3cn4ncnc4c(Cc4cccc(O)c4)n3)nc(N)c21` [Example 113B, (S)-4-amino-5-(4-fluorophenyl)-2-(8-(3-hydroxybenzyl)-[1,2,4]triazolo[1,5-a]pyrazin-6-yl)-5-methyl-5H-pyrrolo[2,3-d]pyrimidin-6(7H)-one], the EC50 is 763 nM.

As to `Nc1nc(-c2cn3ncnc3c(CCC(F)(F)C(F)(F)F)n2)nc2c1C(c1ccccn1)(C1CC1)C(=O)N2` (centres unmarked) [Example 114A, 4-amino-5-cyclopropyl-2-(8-(3,3,4,4,4-pentafluorobutyl)-[1,2,4]triazolo[1,5-a]pyrazin-6-yl)-5-(pyridin-2-yl)-5,7-dihydro-6H-pyrrolo[2,3-d]pyrimidin-6-one], the EC50 is 144 nM.

For the compound `Nc1nc(-c2cn3ncnc3c(CCCC(F)(F)F)n2)nc2c1C(c1ccccn1)(C1CC1)C(=O)N2` (centres unmarked) [Example 115A, 4-amino-5-cyclopropyl-5-(pyridin-2-yl)-2-(8-(4,4,4-trifluorobutyl)-[1,2,4]triazolo[1,5-a]pyrazin-6-yl)-5H-pyrrolo[2,3-d]pyrimidin-6(7H)-one], the EC50 was determined as 233 nM.

For the compound `CCCCc1nc(-c2nc(N)c3c(n2)NC(=O)C3(c2ccccn2)C2CC2)cn2ncnc12` (centres unmarked) [Example 116A, 4-amino-2-(8-butyl-[1,2,4]triazolo[1,5-a]pyrazin-6-yl)-5-cyclopropyl-5-(pyridin-2-yl)-5H-pyrrolo[2,3-d]pyrimidin-6(7H)-one], the EC50 amounted to 19.7 nM.

With `N#Cc1ccc(C2(C3CC3)C(=O)Nc3nc(-c4cn5ncnc5c(CCCC(F)(F)F)n4)nc(N)c32)nc1` (centres unmarked) [Example 117A, 6-(4-Amino-5-cyclopropyl-6-oxo-2-(8-(4,4,4-trifluorobutyl)-[1,2,4]triazolo[1,5-a]pyrazin-6-yl)-6,7-dihydro-5H-pyrrolo[2,3-d]pyrimidin-5-yl)nicotinonitrile], the EC50 was found to be 49.2 nM.

As for `N#Cc1ccc(C2(C3CC3)C(=O)Nc3nc(-c4cn5ncnc5c(CCC(F)(F)C(F)(F)F)n4)nc(N)c32)nc1` (centres unmarked) [Example 118A, 6-(4-Amino-5-cyclopropyl-6-oxo-2-(8-(3,3,4,4,4-pentafluorobutyl)-[1,2,4]triazolo[1,5-a]pyrazin-6-yl)-6,7-dihydro-5H-pyrrolo[2,3-d]pyrimidin-5-yl)nicotinonitrile], the EC50 was found to be 84.1 nM.

In the case of `C[C@@]1(c2ccc(F)cc2)C(=O)Nc2nc(-c3cn4ncnc4c(CCC(F)(F)C(F)(F)F)n3)nc(O)c21` [Example 119A, (S)-5-(4-fluorophenyl)-4-hydroxy-5-methyl-2-(8-(3,3,4,4,4-pentafluorobutyl)-[1,2,4]triazolo[1,5-a]pyrazin-6-yl)-5,7-dihydro-6H-pyrrolo[2,3-d]pyrimidin-6-one], the EC50 was determined as 134 nM.

On to `CC1(c2ccc(Cl)cn2)C(=O)Nc2nc(-c3cn4ncnc4c(CCC(F)(F)C(F)(F)F)n3)nc(O)c21` (centres unmarked) [Example 120A, 5-(5-chloropyridin-2-yl)-4-hydroxy-5-methyl-2-(8-(3,3,4,4,4-pentafluorobutyl)-[1,2,4]triazolo[1,5-a]pyrazin-6-yl)-5H-pyrrolo[2,3-d]pyrimidin-6(7H)-one], for which the EC50 was 155 nM.

Turning to `CC1(c2ccc(Cl)c(F)c2)C(=O)Nc2nc(-c3cn4ncnc4c(CCC(F)(F)C(F)(F)F)n3)nc(O)c21` (centres unmarked) [Example 121B, 5-(4-chloro-3-fluorophenyl)-4-hydroxy-5-methyl-2-(8-(3,3,4,4,4-pentafluorobutyl)-[1,2,4]triazolo[1,5-a]pyrazin-6-yl)-5H-pyrrolo[2,3-d]pyrimidin-6(7H)-one], the EC50 came out at 130 nM.

On to `CC1(c2ccc(F)cn2)C(=O)Nc2nc(-c3cn4ncnc4c(CCC(F)(F)C(F)(F)F)n3)nc(O)c21` (centres unmarked) [Example 122B, 5-(5-fluoropyridin-2-yl)-4-hydroxy-5-methyl-2-(8-(3,3,4,4,4-pentafluorobutyl)-[1,2,4]triazolo[1,5-a]pyrazin-6-yl)-5H-pyrrolo[2,3-d]pyrimidin-6(7H)-one], for which the EC50 was 141 nM.

The assay is the same for the next values; noted with them: CHO-K1/sGC cells, 1 hr at 37° C., cGMP by HTRF; presence or absence of 1 μM DETA-NO not given; read-out: % Act. (percent activation relative to maximum cGMP production of Compound A = 100%).
As to `CC1(c2ccc(O)cn2)C(=O)Nc2nc(-c3cn4ncnc4c(CCC(F)(F)C(F)(F)F)n3)nc(N)c21` (centres unmarked) [Example 110A, 4-Amino-5-(5-hydroxypyridin-2-yl)-5-methyl-2-(8-(3,3,4,4,4-pentafluorobutyl)-[1,2,4]triazolo [1,5-a]pyrazin-6-yl)-5,7-dihydro-6H-pyrrolo [2,3-d]pyrimidin-6-one], the Emax came to 70%.

Consider `CC1(c2ccc(F)cn2)C(=O)Nc2nc(-c3cn4ncnc4c(CCC(F)(F)C(F)(F)F)n3)nc(O)c21` (centres unmarked) [Example 122B, 5-(5-fluoropyridin-2-yl)-4-hydroxy-5-methyl-2-(8-(3,3,4,4,4-pentafluorobutyl)-[1,2,4]triazolo[1,5-a]pyrazin-6-yl)-5H-pyrrolo[2,3-d]pyrimidin-6(7H)-one], for which the Emax was determined as 100%.
